# Read-outs that look alike come from different tables or passages of the source.
# How the values were obtained:
# [1] = tested on: isolated rat liver mitochondria; assay: Mitochondrial swelling (absorbance at 535 nm); type: biochemical; conditions: for Swelling 1XCmax / Swelling 2.5XCmax / Swelling 5XCmax / Swelling 10XCmax / Swelling 20XCmax / Swelling 30XCmax / Swelling 50XCmax / Swelling 100XCmax: difference in signal between KI and DMSO treated samples at the end of experiments; for effect on mitochondrial swelling: up to 100-fold Cmax or highest testable concentration, 25 µM calcium chloride; on Swelling 5XCmax: key: 0 indicates that the drug had no effects (negative)
# RCC I–V = assay: Activities of RCC I–V, overall statements; type: biochemical, rat; conditions: submitochondrial particles; for RCCs inhibited: up to 100-fold Cmax or highest testable concentration
# In short: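 First, submitochondrial particles (1 mg/ml) are incubated with inhibitor for 15 min. Next, complex activities are followed spectrophotometrically, with RCC I taken as the difference between buffers lacking and containing rotenone. Finally, activities are expressed relative to DMSO controls set at 1.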
# [2] = cited from earlier work
# [3] = ref product labeling, cited from earlier work
# RCC I = RCC I activity in submitochondrial particles; type: biochemical, rat; design: key to RCC I at 10XCmax / RCC I at 100XCmax / RCC I at 50XCmax / RCC I at 30XCmax / RCC I at 20XCmax: activity relative to DMSO-treated controls (control set as 1 = 100%)
# In short: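 Inhibitors preincubated 15 min with submitochondrial particles (1 mg/ml) before activity readout. RCC I (rotenone-sensitive fraction) and I/V: A340, and RCC II: A600, each every 1 min for 6 min; RCC III/IV: A550 every 10 s for 2 min. Activities relative to DMSO control set as 1.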
# [4] = tested on: isolated rat liver mitochondria; assay: Mitochondrial toxicity, any endpoint, intact mitochondria and submitochondrial particles; type: biochemical; conditions: for lowest concentration causing significant mitochondrial toxicity: any endpoint; for mitochondrial injury: concentrations equal to 100-fold Cmax
# In short: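 Rat liver mitochondria isolated by differential centrifugation in sucrose/Tris-MOPS/EGTA buffer pH 7.4, adjusted to 1 mg/ml protein before treatment. Kinase inhibitors added at 1:1000 dilution of stock; final DMSO 0.1%, with 0.1% DMSO controls.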
# [5] = Solubility of DMSO stock for 100X/50X Cmax testing; type: physicochemical; conditions: precipitation of DMSO stock
# Text: (§1) Supplement 204_2016_1918_MOESM3_ESM.xlsx, sheet "Sheet1" | column: 100 Cmax; 50 Cmax; note
# [6] = Solubility of drug in DMSO stock / reaction buffer at multiples of Cmax; type: physicochemical
# Text: as §1
# [7] = design: method as in product labeling; conditions: ref product labeling, cited from earlier work
# [8] = human therapeutic Cmax at FDA recommended dosages, ref product labeling and drug approval packages at the official FDA website
# [9] = human therapeutic maximal blood concentration, ref product labeling
# [10] = read-out: Cmax at µM, human therapeutic maximal blood concentration, ref product labeling
# [11] = BBW: black box warning, W&P: Warnings and Precautions
smiles,measurement,setting,value
CC(C)(C)c1nc(-c2cccc(NS(=O)(=O)c3c(F)cccc3F)c2F)c(-c2ccnc(N)n2)s1 [Dabrafenib],lowest concentration causing mitochondrial swelling,[1],tenfold
same,Swelling 1XCmax,[1],0
same,Swelling 2.5XCmax,[1],0
same,Swelling 5XCmax,[1],0
same,Swelling 10XCmax,[1],0.20±0.02
same,Swelling 20XCmax,[1],0.48±0.05
same,Swelling 30XCmax,[1],0.46±0.05
same,Swelling 50XCmax,[1],0.44±0.04
same,Swelling 100XCmax,[1],0.39±0.04
same,effect on mitochondrial swelling,[1],significant mitochondrial swelling
same,RCCs inhibited,RCC I–V,no effects on RCC activities
same,Cmax,[2]; [8],2.84 µM
same,Cmax (ng or µg/ml),[2]; [9],"1,478 ng/ml"
same,Cmax,[2]; [10],2.84 µM
same,Labeling for cardiotoxicity,[3]; [11],W&P: Cardiomyopathy
same,Potential for cardiotoxicity (based on labeling),[3],1
same,RCC I at 10XCmax,RCC I; DMSO treated samples set as 1,0
same,lowest concentration causing significant mitochondrial toxicity,[4],5 fold Cmax
CC[C@H](Nc1ncnc2[nH]cnc12)c1nc2cccc(F)c2c(=O)n1-c1ccccc1 [Idelalisib],Swelling 1XCmax,[1],0
same,Swelling 2.5XCmax,[1],0
same,Swelling 5XCmax,[1],0
same,Swelling 10XCmax,[1],0
same,Swelling 20XCmax,[1],0
same,Swelling 30XCmax,[1],0
same,Swelling 50XCmax,[1],0
same,Swelling 100XCmax,[1],0
same,Cmax,[2]; [8],4.64 µM
same,Cmax (ng or µg/ml),[2]; [9],1.927 µg/mL
same,Cmax,[2]; [10],4.64 µM
same,note (DMSO stock),[5],464 mM will precipitate
same,Potential for cardiotoxicity (based on labeling),[3],0
same,RCC I at 10XCmax,RCC I; DMSO treated samples set as 1,0
same,mitochondrial injury,[4],mitochondrial injury was induced
CNC(=O)c1cc(Oc2ccc(NC(=O)Nc3ccc(Cl)c(C(F)(F)F)c3)c(F)c2)ccn1 [Regorafenib],lowest concentration causing mitochondrial swelling,[1],onefold
same,Swelling 1XCmax,[1],0.46±0.03
same,mitochondrial swelling,[1]; onefold Cmax,almost maximal swelling
same,effect on mitochondrial swelling,[1],significant mitochondrial swelling
same,lowest concentration inhibiting RCCs,RCC I–V,10 fold Cmax
same,RCCs inhibited,RCC I–V,RCC II
same,Cmax,[2]; [8],8.08 µM
same,Cmax,"[2]; therapeutic maximal blood concentration, ref product labeling",3900 ng/mL
same,note (solubility),[6],808 mM will precipitate
same,Labeling for cardiotoxicity,[7]; [11],W&P: Cardiac Ischemia and Infarction
same,Potential for cardiotoxicity (based on labeling),[7],1
same,RCC activity I,"RCC I; 10-fold Cmax, 15 min, DMSO-treated = 100",99.37 ± 3.35 % of control
same,RCC I at 10XCmax,RCC I; relative to DMSO treated samples,0
same,lowest concentration causing significant mitochondrial toxicity,[4],equal to the Cmax
same,mitochondrial injury,[4],mitochondrial injury was induced
CC(=O)c1c(C)c2cnc(Nc3ccc(N4CCNCC4)cn3)nc2n(C2CCCC2)c1=O.Cl [palbociclib hydrochloride],Swelling 1XCmax,[1],0
same,Swelling 2.5XCmax,[1],0
same,Swelling 5XCmax,[1],0
same,Swelling 10XCmax,[1],0
same,Swelling 20XCmax,[1],0
same,Swelling 30XCmax,[1],0
same,Swelling 50XCmax,[1],0
same,Swelling 100XCmax,[1],0
same,Cmax (ng or µg/ml),[2]; [9],0.116 µg/mL
same,Cmax,[2]; [10],0.24 µM
same,note (DMSO stock),[5],100X will precipitate
same,Potential for cardiotoxicity (based on labeling),[3],0
same,RCC I at 10XCmax,RCC I; DMSO treated samples set as 1,0

# Source: paper PMC5515969, “Effects of 31 FDA approved small-molecule kinase inhibitors on isolated rat liver mitochondria” (Archives of Toxicology, 2016)
